Data on six compounds can be found in US20100248390A1, “COMPOSITIONS AND METHODS FOR IDENTIFYING LIGANDS OF ODORANT RECEPTORS” (DUKE UNIVERSITY, priority 2009, published 2010).

Usually EC50 stands for the concentration needed to bring the measured effect to its halfway point.

The target in experiment [1] is T1, mouse odorant receptors (ORs) (Mus musculus, UniProt Q8VG42).
T1 construct: OR open reading frames were amplified from genomic DNA; expressed in transfected cells; host or cells: Hana3A cells, co-transfected with RTP1S, CRE-luciferase and pRL-SV40
T1 sequence (Q8VG42 1-310): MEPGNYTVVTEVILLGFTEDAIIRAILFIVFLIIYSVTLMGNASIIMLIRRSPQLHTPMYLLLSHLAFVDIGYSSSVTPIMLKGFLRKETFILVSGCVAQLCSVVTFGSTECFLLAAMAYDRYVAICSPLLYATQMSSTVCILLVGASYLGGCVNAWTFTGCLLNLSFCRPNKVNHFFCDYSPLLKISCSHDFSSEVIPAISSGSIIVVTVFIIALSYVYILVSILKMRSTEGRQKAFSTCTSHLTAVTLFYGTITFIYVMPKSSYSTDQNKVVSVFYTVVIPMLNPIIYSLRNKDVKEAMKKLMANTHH
The experiment can be described thus: CRE-luciferase assay of odorant receptor activation (Dual-Glo, Hana3A cells, RTP1S), dose-response EC50. It counts as cell-based. The conditions noted are these: receptor MOR204-6; for log EC50, MOR204-6: 0 = no response.

Experiment [2] concerns the target T2, mouse odorant receptors (ORs) (Mus musculus, UniProt P23275).
T2 construct: OR open reading frames were amplified from genomic DNA; expressed in transfected cells; host or cells: Hana3A cells, co-transfected with RTP1S, CRE-luciferase and pRL-SV40
T2 sequence (P23275 1-312): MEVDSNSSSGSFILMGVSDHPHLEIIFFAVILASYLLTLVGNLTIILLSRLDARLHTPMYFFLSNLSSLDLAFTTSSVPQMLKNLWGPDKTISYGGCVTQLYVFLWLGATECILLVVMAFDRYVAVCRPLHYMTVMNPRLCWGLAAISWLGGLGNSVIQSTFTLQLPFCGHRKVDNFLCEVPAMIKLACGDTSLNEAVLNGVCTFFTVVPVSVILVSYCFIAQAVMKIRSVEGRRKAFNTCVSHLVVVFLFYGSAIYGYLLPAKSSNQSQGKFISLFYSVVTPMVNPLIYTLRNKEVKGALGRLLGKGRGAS
The experiment is described as above. In kind it is cell-based. The conditions noted are these: receptor MOR256-17; read-out: log EC50 of odorant at MOR256-17 (0 = no response) (converted).

Turning to `C=C(C)C1CC=C(C)C(=O)C1` (single isomer, unassigned; (-)) [(−)-Carvone], the “log EC50, MOR204-6” value in experiment [1] is −3.625.
On the same count and under the same terms, for `C=C(C)[C@H]1CC=C(C)C(=O)C1` [(+)-Carvone] the value was −3.85.
For the compound `O=c1ccc2ccccc2o1` [Coumarin], the concentration for a half-maximal effect (EC50) in experiment [1] (read-out: log EC50 (Table 4 value), MOR204-6 (converted)) is 7.96 µM.
With `CCCCCCCCC(=O)O` [Nonanoic acid], in experiment [2], the EC50 was 20.2 µM.
The same measure, in the same setting: for `CCCCCCCCS` [Octanethiol] the value was 40.9 µM; for `CCCCCCCC(=O)O` [Octanoic Acid], 38.9 µM.
